Experimental data published in patent publication US20260167671A1, “IMMUNOMODULATORS” (Bristol-Myers Squibb Company, priority 2021, published 2026).
Where two headings read alike, the source gives them in different places.

Molecular target: T1, human PD-L1 (293T-hPD-L1 cells; binding of PE-labeled PD-1-Ig) (Homo sapiens, UniProt Q9NZQ7)
T1 construct: expressed in transfected cells; host or cells: 293T (human embryonic kidney) stably over-expressing human PD-L1
Assay: 293T-hPD-L1 Cell Binding High-Content Screening Assay (CBA)
Experimental: 293T-hPD-L1 Cell Binding High-Content Screening Assay (CBA).
Phycoerythrin (PE) was covalently linked to the Ig epitope tag of human PD-1-Ig and fluorescently-labeled PD-1-Ig was used for binding studies with a human embryonic kidney cell line (293T) stably over-expressing human PD-L1 (293T-hPD-L1). Briefly, 2×10^3 293T-hPD-L1 cells were seeded into 384 well plates in 20 μl of DMEM supplemented with 10% fetal calf serum and cultured overnight. 125 nl of compound was added to cells followed by 5 μl of PE-labeled PD-1-Ig (0.5 nM final), diluted in DMEM supplemented with 10% fetal calf serum, followed by incubation at 37° C. for 1 h. Cells were washed 3× in 100 μl dPBS followed by fixation with 30 μl of 4% paraformaldehyde in dPBS containing 10 μg/ml Hoechst 33342 for 30 min at room temperature. Cells were washed 3× in 100 μl of dPBS followed by final addition of 15 μl of dPBS. Data was collected and processed using a Cell Insight NXT High Content Imager and associated software.
Table 1 lists the IC50 values for representative examples of this disclosure measured in the 293T-hPD-L1 Cell Binding High-Content Screening Assay.

T1 sequence (Q9NZQ7 19-290): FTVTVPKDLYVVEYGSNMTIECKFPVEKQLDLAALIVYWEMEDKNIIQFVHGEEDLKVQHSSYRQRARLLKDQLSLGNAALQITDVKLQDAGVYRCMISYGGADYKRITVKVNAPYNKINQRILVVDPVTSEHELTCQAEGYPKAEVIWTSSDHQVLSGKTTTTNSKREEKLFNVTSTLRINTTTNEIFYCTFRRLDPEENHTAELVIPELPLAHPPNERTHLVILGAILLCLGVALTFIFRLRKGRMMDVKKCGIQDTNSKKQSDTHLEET

| Structure (SMILES) | IC50 (293T cells stably over-expressing human PD-L1, PE-labeled human PD-1-Ig 0.5 nM final, 37° C. for 1 h, read-out: 293T-hPD-L1_PD-1 IC50) [nM] | IC50 [nM] |
| --- | --- | --- |
| CCCC[C@H]1C(=O)N(C)[C@@H](CCCC)C(=O)N[C@@H](CC(C)C)C(=O)N[C@H](C(=O)NCC(=O)N[C@@H](Cc2cn(CCOCCOCCOCCOCCOCCOCCOCCOCCOCCOCCOCCNC(=O)CC[C@H](NC(=O)CCCCCCCCCOc3ccc(C(=O)O)cc3)C(=O)O)nn2)C(=O)O)CSCC(=O)N[C@@H](Cc2ccc(O)cc2)C(=O)N(C)[C@@H](C)C(=O)N[C@@H](CC(N)=O)C(=O)N2CCC[C@H]2C(=O)N[C@@H](CN)C(=O)N[C@@H](CC(C)C)C(=O)N2C[C@H](O)C[C@H]2C(=O)N[C@@H](Cc2c[nH]c3ccccc23)C(=O)N[C@@H](CCN)C(=O)N[C@@H](Cc2cn(CC(=O)O)c3ccccc23)C(=O)N1C [Example 1001] | 3.3 |  |
| CCCC[C@H]1C(=O)N(C)[C@@H](CCCC)C(=O)N[C@@H](CC(C)C)C(=O)N[C@H](C(=O)NCC(=O)N[C@@H](Cc2cn(CCOCCOCCOCCOCCOCCOCCOCCOCCOCCOCCOCCNC(=O)CC[C@H](NC(=O)CCCCCCCCCCCOc3ccc(C(=O)O)cc3)C(=O)O)nn2)C(=O)O)CSCC(=O)N[C@@H](Cc2ccc(O)cc2)C(=O)N(C)[C@@H](C)C(=O)N[C@@H](CC(N)=O)C(=O)N2CCC[C@H]2C(=O)N[C@@H](CN)C(=O)N[C@@H](CC(C)C)C(=O)N2C[C@H](O)C[C@H]2C(=O)N[C@@H](Cc2c[nH]c3ccccc23)C(=O)N[C@@H](CCN)C(=O)N[C@@H](Cc2cn(CC(=O)O)c3ccccc23)C(=O)N1C [Example 1003] |  | 3.6 |
